# Test results reported in patent US8927717B1, “Thiochromeno[2,3-c]quinolin-12-one derivatives, preparation method and application thereof” (National Defense Medical Center, priority 2014, dated 2015).
# Experiments:
# [1] = target: T1, TOP II (Topoisomerase II) (Homo sapiens, UniProt P11388); test: TOP II-catalyzed relaxation of plasmid DNA assay; format: biochemical; settings: for IC50: five different concentrations, TopoGEN TG2005H, TG-2000H-1, read-out: IC50 value, TOP II mediated supercoiled DNA relaxation; for inhibitory effect in TOP II relaxation assay compared with VP-16: primary assay at 25 and/or 50 μM
# T1 construct: purchased TopoGEN TG-2000H-1
# T1 sequence (P11388 whole entry): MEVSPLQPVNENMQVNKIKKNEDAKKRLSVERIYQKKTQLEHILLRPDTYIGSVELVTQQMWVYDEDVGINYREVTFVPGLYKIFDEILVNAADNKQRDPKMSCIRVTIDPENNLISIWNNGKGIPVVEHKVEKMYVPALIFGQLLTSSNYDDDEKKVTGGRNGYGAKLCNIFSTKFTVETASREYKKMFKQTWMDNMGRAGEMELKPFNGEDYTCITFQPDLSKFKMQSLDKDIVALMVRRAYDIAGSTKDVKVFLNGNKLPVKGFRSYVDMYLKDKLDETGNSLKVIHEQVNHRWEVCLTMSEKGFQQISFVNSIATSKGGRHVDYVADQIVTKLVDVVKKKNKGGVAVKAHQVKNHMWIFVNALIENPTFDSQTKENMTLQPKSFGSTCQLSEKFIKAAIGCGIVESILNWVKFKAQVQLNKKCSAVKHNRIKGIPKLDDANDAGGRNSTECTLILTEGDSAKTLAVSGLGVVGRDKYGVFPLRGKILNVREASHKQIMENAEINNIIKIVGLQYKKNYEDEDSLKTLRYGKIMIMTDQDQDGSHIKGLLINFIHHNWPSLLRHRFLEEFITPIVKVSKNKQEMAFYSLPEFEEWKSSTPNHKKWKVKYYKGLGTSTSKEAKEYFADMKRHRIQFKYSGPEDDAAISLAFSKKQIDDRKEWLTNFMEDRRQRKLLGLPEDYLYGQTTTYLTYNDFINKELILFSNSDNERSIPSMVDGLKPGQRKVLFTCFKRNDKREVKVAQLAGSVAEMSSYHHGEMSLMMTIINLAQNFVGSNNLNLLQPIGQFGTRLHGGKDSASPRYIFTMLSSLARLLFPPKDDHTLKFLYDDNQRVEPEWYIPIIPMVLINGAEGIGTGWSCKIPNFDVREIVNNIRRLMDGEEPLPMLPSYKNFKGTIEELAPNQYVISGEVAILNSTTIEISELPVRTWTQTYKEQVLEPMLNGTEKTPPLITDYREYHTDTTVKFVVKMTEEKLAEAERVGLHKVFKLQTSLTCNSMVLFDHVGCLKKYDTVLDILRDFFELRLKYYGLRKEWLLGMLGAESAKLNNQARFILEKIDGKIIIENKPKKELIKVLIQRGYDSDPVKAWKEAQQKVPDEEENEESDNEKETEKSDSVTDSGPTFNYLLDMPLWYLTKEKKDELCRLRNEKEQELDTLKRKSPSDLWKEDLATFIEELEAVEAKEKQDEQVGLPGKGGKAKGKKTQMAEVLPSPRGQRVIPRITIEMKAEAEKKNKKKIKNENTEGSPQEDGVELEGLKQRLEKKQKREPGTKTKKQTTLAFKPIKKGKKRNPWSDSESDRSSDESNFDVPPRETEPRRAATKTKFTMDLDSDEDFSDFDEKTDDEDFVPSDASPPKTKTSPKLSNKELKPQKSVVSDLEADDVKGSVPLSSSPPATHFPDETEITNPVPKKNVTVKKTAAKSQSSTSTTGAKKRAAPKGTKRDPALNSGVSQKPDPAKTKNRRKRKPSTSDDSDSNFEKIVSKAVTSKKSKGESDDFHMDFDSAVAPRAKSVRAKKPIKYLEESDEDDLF
# Procedure: We also performed TOP II-catalyzed relaxation of plasmid DNA assays (FIG. 5-7) to evaluate if compounds could inhibit TOP II. […] The IC50 value of compounds 7, N7, N8, N14, N15, N18, and N19 were about 10, 10, 1, 10, 5, 1, and 1 μM, respectively (detect by TopoGEN TG2005H, TG-2000H-1).
# TOP I (Topoisomerase I) [2] = target: T2, TOP I (Topoisomerase I) (Homo sapiens, UniProt P11387); test: TOP I mediated supercoiled DNA relaxation assay; format: biochemical; settings: primary assay at 25 and/or 50 μM
# T2 construct: purchased TopoGEN TG2005H
# T2 sequence (P11387 1-765): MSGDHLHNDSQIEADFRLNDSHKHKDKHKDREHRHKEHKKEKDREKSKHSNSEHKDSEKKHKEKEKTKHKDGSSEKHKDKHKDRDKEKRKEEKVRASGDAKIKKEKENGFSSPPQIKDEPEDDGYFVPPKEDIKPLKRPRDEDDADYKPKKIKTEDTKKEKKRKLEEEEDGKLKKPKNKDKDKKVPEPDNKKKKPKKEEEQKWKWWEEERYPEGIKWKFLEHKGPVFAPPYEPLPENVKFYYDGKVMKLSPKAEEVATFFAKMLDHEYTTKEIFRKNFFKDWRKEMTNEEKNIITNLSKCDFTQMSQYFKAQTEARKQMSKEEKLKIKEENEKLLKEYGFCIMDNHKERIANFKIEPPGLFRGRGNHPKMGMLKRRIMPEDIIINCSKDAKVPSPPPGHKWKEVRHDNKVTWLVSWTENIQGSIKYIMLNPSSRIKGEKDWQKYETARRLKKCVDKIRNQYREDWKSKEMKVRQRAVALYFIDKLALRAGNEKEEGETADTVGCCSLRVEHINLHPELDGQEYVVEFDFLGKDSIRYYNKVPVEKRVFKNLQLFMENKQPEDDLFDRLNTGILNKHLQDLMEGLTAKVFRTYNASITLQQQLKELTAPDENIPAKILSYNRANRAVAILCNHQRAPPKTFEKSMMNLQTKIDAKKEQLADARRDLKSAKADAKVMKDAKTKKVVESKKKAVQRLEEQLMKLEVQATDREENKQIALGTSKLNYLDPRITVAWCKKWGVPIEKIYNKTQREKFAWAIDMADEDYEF
# Procedure: According to the cell cytotoxicity, compounds 5, 7, 8, 16, 19, N2, N7, N8, N9, N14-N19, and N25 were also selected for primary TOP I and II activities assays at 25 and/or 50 μM (FIG. 2-4).
# TOP I (Topoisomerase I) [3] = target: T2, TOP I (Topoisomerase I); test: TOP I mediated supercoiled DNA relaxation assay; format: biochemical; settings: five different concentrations; TopoGEN TG2005H, TG-2000H-1
IC50 [1] [nM],melting point [°C],inhibitory effect in TOP I activity assay compared with CPT (TOP I (Topoisomerase I) [2]),IC50 (TOP I (Topoisomerase I) [3]) [µM],Compound,inhibitory effect in TOP II relaxation assay compared with VP-16 [1]
~1000,152 to 153,,,"CCN(CC)CCNc1nc2ccccc2c2c(=O)c3cc(Cl)ccc3sc12 [Compound N8, 10-Chloro-6-((2-(diethylamino)ethyl)amino)-12H-thiochromeno[2,3-c]quinolin-12-one]",more potent inhibitory effects than the positive agent VP-16
~5000,141 to 143,more potent inhibitory effects than CPT,~5,"O=c1c2cc(Cl)ccc2sc2c(NCCNCCO)nc3ccccc3c12 [Compound N15, 10-Chloro-6-((2-((2-hydroxyethyl)amino)ethyl)amino)-12H-thiochromeno[2,3-c]quinolin-12-one]",more potent inhibitory effects than the positive agent VP-16
